Reference: PubChem BioAssay (NCI)
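All cell lines were grown in 96-well plates and treated with compound for 48 hours. The concentration for full growth arrest is given as TGI.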

Legend:
Test in all cases: NCI anticancer screen, dose series, 48 h
SK-MEL-5 melanoma = tested on: SK-MEL-5 melanoma
MDA-N = tested on: MDA-N
OVCAR-4 ovarian = tested on: OVCAR-4 ovarian
HT29 colon = tested on: HT29 colon
NCI-H226 lung = tested on: NCI-H226 lung
CAKI-1 renal = tested on: CAKI-1 renal
U251 CNS = tested on: U251 CNS
RXF 393 renal = tested on: RXF 393 renal
NCI-H23 lung = tested on: NCI-H23 lung
MCF7 breast = tested on: MCF7 breast
MDA-MB-435 = tested on: MDA-MB-435
DU-145 prostate = tested on: DU-145 prostate

Compound	TGI (SK-MEL-5 melanoma) [µM]	TGI (MDA-N) [µM]	TGI (OVCAR-4 ovarian) [µM]	TGI (HT29 colon) [µM]	TGI (NCI-H226 lung) [µM]	TGI (CAKI-1 renal) [µM]	TGI (U251 CNS) [µM]	TGI (RXF 393 renal) [µM]	TGI (NCI-H23 lung) [µM]	TGI (MCF7 breast) [µM]	TGI (MDA-MB-435) [µM]	TGI (DU-145 prostate) [µM]
CCOc1ccc(N=NC2C(=O)N(C(=O)CC(=O)Nc3ccc(Cl)cc3)N=C2C)cc1 (configuration not stated)	> 100	> 100	> 100	> 100	> 100	> 100	> 100	> 100	> 100	> 100	> 100	> 100
COc1ccc(N(C(=O)OC(C)(C)C)[C@@H]2C(C)=C[C@H]([S@@](=O)c3ccc(C)cc3)[C@@H]3C(=O)N(C)C(=O)[C@@H]32)cc1	43.7	40.8	34.2	45.5	34.6	52.6	31.9	30.4	45.7	62.1	37.9	81.8
CC(=O)NC1C(OCC(=O)NC(C)C(=O)NC(CCC(=O)NCCCCCNc2ccc([N+](=O)[O-])c3[nH]c4ccccc4c(=O)c23)C(N)=O)C(O)C(CO)OC1(C)OCc1ccccc1 (configuration not stated)	> 50	> 50	> 50	> 50	> 50	> 50	> 50	19.5	> 50	> 50	> 50	> 50
CCCCCCc1cc(C=O)sc1-c1ccc(-c2sc(-c3ccc(-c4ccc(-c5cc(CCCCCC)c(-c6ccc(-c7sc(C=O)cc7CCCCCC)s6)s5)s4)s3)cc2CCCCCC)s1	> 100	> 100	> 100	> 100	> 100	> 100	> 100	> 100	> 100	> 100	> 100	> 100
OC1(c2ccc(Cl)cc2)c2ccccc2C2=Nc3ccccc3CN21 (configuration not stated)	> 100	> 100	50.6	33.8	> 71.9	> 100	> 100	55.4	> 100	> 87.7	> 100	> 100
COC(=O)c1ccc(/C=C/C2=CC(=O)C=CC2=O)cc1	> 52	> 100	42	48.9	40.2	30.5	41.7	42.2	42.4	27.8	44	> 100
CCC(C#N)N(Cc1cccc(CN(C(C)=O)C(C#N)CC)c1)C(C)=O (configuration not stated)	> 100	> 100	> 100	> 100	> 100	> 100	> 100	> 100	> 100	> 100	> 100	> 100
COc1ccc(OC)c2c1C[C@@H]1C(C#N)N3[C@H](Cc4c(OC)ccc(OC)c4[C@@H]3C)C(=O)N1[C@H]2C (some centres not stated)	3.25	22	16.4	30.4	40.9	30.3	4.91	3.44	19.6	17.5	14	> 54.7
Cc1cc(SCC(=O)c2ccc(Br)cc2)cc(C)[o+]1	35.9	> 100	83.7	65.2	95.5	> 100	90	62	> 100	38.2	51.3	68.9
CC(=O)c1ccc2c(c1)CC1(C2)Cc2cc3c(cc2C1)C(=O)CC3 (configuration not stated)	11.9	0.492	> 73.6	6.32	2.33	33.5	34	17.7	14.7	26.4	0.636	25.8
COc1ccc2c(c1)CCC(CN1CCN(CCOC(c3ccc(F)cc3)c3ccc(F)cc3)CC1)=C2	18.5	47.2	> 100	32.4	30.6	> 100	42.9	26.8	38.2	71.9	68.9	49.2
CC(C)(C)[Si](C)(C)OCC1OC(n2ccc(=O)[nH]c2=O)C(O[Si](C)(C)C(C)(C)C)/C1=N/O (configuration not stated)	6.07	> 36.2	17.8	9.82	9.24	37.9	23.4	23.3	14.8	27.7	9.95	28.5
COC(=O)c1c(C)nc(C)c(N=O)c1-c1ccccc1C(F)(F)F	89.4	43.6	31.8	29.1	43.2	23	34.5	29.7	48.5	40.8	56.3	> 100
COc1ccccc1NC(=S)N/N=C(/c1ccccc1)c1ccccn1	6.44	21.5	19.3	21	8.64	10.2	14.9	13.9	24.3	3.62	20	4.95
Cc1nn(-c2ccccc2)c(C)c1/C=N/NC(=O)c1sc(=S)n(-c2ccc(Cl)cc2)c1N	26	> 100	95.7	> 100	> 100	9.68	> 100	6	> 100	> 100	> 100	> 100
COc1ccc(N=NN2CCCC2)cc1	> 100	39.8	43.6	> 100	> 100	35.1	> 100	64.1	> 100	78	> 100	> 100
Cc1ccc(Nc2ncnc3sc(SCc4ccccc4)nc23)cc1	> 100	> 100	> 100	> 100	> 100	> 100	> 100	> 100	> 100	> 100	> 100	> 100
C=C1C(=O)OC2C(C)C3C=CC(=O)[C@@]3(C)C(OC(=O)/C(C)=C/C)C1[C@@H]2OC(C)=O (some centres not stated)	2.78	0.738	2.53	1.18	4.42	1.61	2.36	0.61	1.29	1.37	0.86	3.23
CCOC(=O)C1(C(=O)OCC)C[C@H]2CON=C2[C@@H]1c1ccc(C(F)(F)F)cc1	> 100	> 100	61.4	> 100	> 100	> 100	> 100	> 100	> 100	> 100	> 100	> 100
CC1(c2cccc(C3CCC4(C=CC3=O)OCCO4)c2)OCCO1 (configuration not stated)	28	25.2	18.1	25.8	49.2	21.1	33.8	11.5	24	25.9	26.1	31.8
S=C1c2cc(Cl)ccc2NC(=NC2CCCC2)C2CSCN12 (configuration not stated)	> 100	> 100	> 100	> 100	> 100	> 100	> 100	> 100	> 100	> 100	> 100	> 100
Cc1nc2c(=O)[nH]c(=O)nc-2n(CCO)c1C	> 100	> 100	> 100	> 100	> 100	> 100	> 100	> 100	> 100	> 100	> 100	> 100
CCOC(=O)/C(O)=C(\C=N\C(=S)Nc1ccc(Cl)c(Cl)c1)C(=O)OCC	> 100	> 100	> 100	> 100	> 100	> 100	> 100	> 100	> 100	> 100	> 100	> 100
CCOC(=O)c1cc(-c2ccc(OC)c(OC)c2)cn1C	> 10	> 10	> 10	> 10	> 10	> 10	> 10	> 10	> 10	> 10	> 10	> 10
Cc1ccc(S(=O)/C=C(\NC(=O)OCc2ccccc2)C(F)(F)F)cc1 (configuration not stated)	> 100	> 100	> 100	> 100	> 100	> 100	55.2	> 100	> 100	> 100	> 100	> 100
C(=N\NC1=NCCCN1)/c1ccc(-c2cn3cc(/C=N/NC4=NCCCN4)ccc3n2)cc1	> 100	> 100	> 100	> 71.7	> 100	> 100	> 100	> 100	> 100	> 100	> 100	> 100
